Assay results as given in patent US20160120863A1, “SLC2A TRANSPORTER INHIBITORS” (IOMET PHARMA LTD., priority 2013, published 2016).

Key:
human GLUT2 = target: T1, human GLUT2 (Homo sapiens, UniProt P11168); assay: [3H]-deoxy-D-glucose uptake assay, GLUT2; type: cell-based; conditions: [3H]-deoxy-D-glucose uptake in HEK293 cells stably expressing human GLUT2
T1 construct: expressed in transfected cells
T1 sequence (P11168 1-524): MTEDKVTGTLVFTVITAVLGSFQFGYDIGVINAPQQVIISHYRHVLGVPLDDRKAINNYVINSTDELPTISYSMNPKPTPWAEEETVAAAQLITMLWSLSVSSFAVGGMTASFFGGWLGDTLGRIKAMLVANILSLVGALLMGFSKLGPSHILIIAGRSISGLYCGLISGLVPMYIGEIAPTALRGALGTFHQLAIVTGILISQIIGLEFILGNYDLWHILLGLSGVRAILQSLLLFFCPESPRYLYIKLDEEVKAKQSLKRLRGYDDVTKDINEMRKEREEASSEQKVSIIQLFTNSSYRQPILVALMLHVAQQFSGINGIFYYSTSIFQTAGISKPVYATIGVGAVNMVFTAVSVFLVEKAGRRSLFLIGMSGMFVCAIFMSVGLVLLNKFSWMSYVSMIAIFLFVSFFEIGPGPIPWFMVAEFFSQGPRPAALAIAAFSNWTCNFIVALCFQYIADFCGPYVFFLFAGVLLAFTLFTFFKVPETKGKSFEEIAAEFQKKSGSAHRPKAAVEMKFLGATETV
Procedure: HEK293 cells were engineered to stably express either human GLUT1, GLUT2, GLUt3 or GLUT4 by transfection with the pReceiver-Lv105 plasmid, containing either hGLUT1, hGLUT2, hGLUT3, or hGLUT4 gene constructs with lipofectamine 2000, hGLUT1- hGLUT2- hGLUT3- or hGLUT4-overexpressing polyclonal populations were isolated under purinomycin selective pressure (1 μg/ml) and maintained in Dulbecco's modified Eagle's medium supplemented with 1 μg/ml purinomycin+10% foetal bovine serum (FBS).
60,000 cells per well were seeded overnight into poly-D-lysine coasted 96-well plates. […] 90 μl of test compounds were added in glucose-free uptake buffer and cells were incubated at 37° C. for 30 min.
Cells were then washed twice with ice-cold PBS and 100 μl of Microscint-20 was added per well. Glucose uptake was quantified with a scintillation counter. The half maximal inhibitory concentration (IC50) (a measure of the effectiveness of the test compound in inhibiting glucose uptake) was determined.

human GLUT1 = target: T2, human GLUT1 (Homo sapiens, UniProt P11166); assay: [3H]-deoxy-D-glucose uptake assay, GLUT1; type: cell-based; conditions: [3H]-deoxy-D-glucose uptake in HEK293 cells stably expressing human GLUT1
T2 construct: expressed in transfected cells
T2 sequence (P11166 1-492): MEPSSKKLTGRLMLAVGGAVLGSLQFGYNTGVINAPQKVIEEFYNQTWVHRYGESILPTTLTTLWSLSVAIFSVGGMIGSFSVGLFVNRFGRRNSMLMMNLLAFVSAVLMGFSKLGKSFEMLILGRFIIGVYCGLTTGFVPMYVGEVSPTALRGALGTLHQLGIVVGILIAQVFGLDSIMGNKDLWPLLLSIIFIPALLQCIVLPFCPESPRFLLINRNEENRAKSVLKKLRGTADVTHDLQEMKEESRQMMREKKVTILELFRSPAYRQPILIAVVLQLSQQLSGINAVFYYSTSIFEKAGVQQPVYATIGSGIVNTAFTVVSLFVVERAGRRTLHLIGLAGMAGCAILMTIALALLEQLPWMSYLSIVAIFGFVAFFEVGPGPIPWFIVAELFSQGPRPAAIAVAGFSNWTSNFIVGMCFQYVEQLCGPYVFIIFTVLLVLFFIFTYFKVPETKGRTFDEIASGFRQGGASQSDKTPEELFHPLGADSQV
Procedure, shortened: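 HEK293 cells stably overexpressing human GLUT1 or GLUT2, seeded at 60,000 per well, treated with compounds in glucose-free uptake buffer for 30 min at 37 °C. [3H]-deoxy-D-glucose uptake quantified by scintillation counting after ice-cold PBS washes; IC50 determined.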

SMILES | GLUT2 pIC50 (human GLUT2) | GLUT1 pIC50 (human GLUT1)
CN(c1ccc2nc(-c3ccc(Cl)cc3)c(CN3CCNC(=O)C3)n2c1)S(C)(=O)=O [Compound 325] | ++ (pIC50 5.00-5.99) | +++ (pIC50 ≧ 6.00)
CC(=O)N1CCN(Cc2c(-c3ccc(Cl)cc3)nc3ccc(N(C)S(=O)(=O)C4CC4)cn23)CC1 [Compound 327] | ++ (pIC50 5.00-5.99) | +++ (pIC50 ≧ 6.00)
Fc1cncc(F)c1-c1ccc2nc(-c3ccc(Cl)cc3)c(CN3CCOCC3)n2c1 [Compound 328] | ++ (pIC50 5.00-5.99) | ++ (pIC50 5.00-5.99)
Clc1ccc(-c2nc3ccc(-c4ncon4)cn3c2CN2CCn3ncnc3C2)c(Cl)c1 [Compound 329] | +++ (pIC50 ≧ 6.00) | +++ (pIC50 ≧ 6.00)
CS(=O)(=O)N1CCN(Cc2c(-c3ccc(Cl)cc3Cl)nc3cnc(C4CC4)cn23)CC1 [Compound 330] | ++ (pIC50 5.00-5.99) | +++ (pIC50 ≧ 6.00)
CC(=O)N1CCN(Cc2c(-c3ccc(Cl)cc3)nc3cnc(NS(C)(=O)=O)cn23)CC1 [Compound 331] | +− (pIC50 < 4.00) | +− (pIC50 < 4.00)
CS(=O)(=O)Nc1ccc2nc(-c3ccc(Cl)cc3)c(CN3CCn4ncnc4C3)n2c1 [Compound 337] | ++ (pIC50 5.00-5.99) | +++ (pIC50 ≧ 6.00)
O=C(C1COC1)N1CCN(Cc2c(-c3ccc(Cl)cc3Cl)nc3ccc(-c4ncon4)cn23)CC1 [Compound 338] | +++ (pIC50 ≧ 6.00) | +++ (pIC50 ≧ 6.00)
Clc1ccc(-c2nc3ccc(-c4ccccc4)cn3c2CCN2CCOCC2)cc1 [Compound 342] | ++ (pIC50 5.00-5.99) | +− (pIC50 < 4.00)
CC(=O)N1CCN(Cc2c(-c3ccc(Cl)cc3Cl)nc3cnc(NS(C)(=O)=O)cn23)CC1 [Compound 344] | +− (pIC50 < 4.00) | +− (pIC50 < 4.00)
CS(=O)(=O)Nc1ccc2nc(-c3ccc(Cl)cc3Cl)c(CN3CCn4ncnc4C3)n2c1 [Compound 345] | ++ (pIC50 5.00-5.99) | +++ (pIC50 ≧ 6.00)
CC(=O)N1CCN(Cc2c(-c3ccc(Cl)cc3Cl)nc3cnc(N(C)S(C)(=O)=O)cn23)CC1 [Compound 347] | ++ (pIC50 5.00-5.99) | +++ (pIC50 ≧ 6.00)
Clc1ccc(-c2nc3cnc(C4CC4)cn3c2CN2CCNCC2)cc1 [Compound 348] | +− (pIC50 < 4.00) | +− (pIC50 < 4.00)
CC(=O)N1CCN(Cc2c(-c3ccc(Cl)cc3Cl)nc3cnccn23)CC1 [Compound 349] | +− (pIC50 < 4.00) | ++ (pIC50 5.00-5.99)
Clc1ccc(-c2nc3ccc(-c4ccccc4)cn3c2CN2CCSCC2)cc1 [Compound 352] | +− (pIC50 < 4.00) | +− (pIC50 < 4.00)
CC(=O)N1CCN(Cc2c(-c3ccc(Cl)cc3Cl)nc3ccc(N4CCCCS4(=O)=O)cn23)CC1 [Compound 354] | +++ (pIC50 ≧ 6.00) | +++ (pIC50 ≧ 6.00)
CS(=O)(=O)Nc1ccc2nc(-c3ccc(Cl)cc3Cl)c(CN3CCOCC3)n2c1 [Compound 357] | ++ (pIC50 5.00-5.99) | +++ (pIC50 ≧ 6.00)
CC(=O)N1CCN(Cc2c(-c3ccc(Cl)cc3Cl)nc3cnc(C(C)C)cn23)CC1 [Compound 358] | +++ (pIC50 ≧ 6.00) | +++ (pIC50 ≧ 6.00)
CS(=O)(=O)Nc1ccc2nc(-c3ccc(Cl)cc3Cl)c(CN3CCNC(=O)C3)n2c1 [Compound 359] | ++ (pIC50 5.00-5.99) | +++ (pIC50 ≧ 6.00)
CS(=O)(=O)Nc1ccc2nc(-c3ccc(Cl)cc3Cl)c(CN3CCCOCC3)n2c1 [Compound 362] | ++ (pIC50 5.00-5.99) | +++ (pIC50 ≧ 6.00)
O=S1(=O)CCN(Cc2c(-c3ccc(Cl)cc3)nc3ccc(-c4ccccc4)cn23)CC1 [Compound 364] | +− (pIC50 < 4.00) | ++ (pIC50 5.00-5.99)
CS(=O)(=O)c1ccc2nc(-c3ccc(Cl)cc3)c(CN3CCOCC3)n2c1 [Compound 379] | +− (pIC50 < 4.00) | ++ (pIC50 5.00-5.99)
CC(=O)N1CCN(Cc2c(-c3ccc(Cl)cc3)nc3ccc(S(=O)(=O)N4CCCC4)cn23)CC1 [Compound 383] | ++ (pIC50 5.00-5.99) | +++ (pIC50 ≧ 6.00)
CCNS(=O)(=O)c1ccc2nc(-c3ccc(Cl)cc3)c(CN3CCN(C(C)=O)CC3)n2c1 [Compound 384] | ++ (pIC50 5.00-5.99) | +++ (pIC50 ≧ 6.00)
